Results on 6 molecules are retold here after PMC7961763, “Semi-Synthesis of Harringtonolide Derivatives and Their Antiproliferative Activity” (Molecules, 2021).

What is called IC50 is the point on the concentration scale where inhibition reaches its midpoint.

Data set [1] relates to A-549 (human lung adenocarcinoma cell line). As to the kind of experiment: MTT assay, cytotoxicity against A549. The following applies: read-out: IC50 A549. The class given is cell-based. The protocol:
(§1) All the synthesized derivatives of HO were tested for their antiproliferative activity against four human cancer cell lines, including the HCT-116, A375, A-549, and Huh-7 cell lines, using the MTT assay. Cisplatin was used as a positive control, while lead compound HO (1) was also included in the study for comparison.
(§2) HCT-116 (Human colon cancer cell line), A375 (human melanoma cancer cell line), A-549 (human lung adenocarcinoma cell line), Huh-7 (human hepatoma cancer cell line), and L-02 (normal hepatic cell line) were purchased from the Cell Bank of Shanghai Institute of Biochemistry and Cell Biology, Chinese Academy of Sciences (Shanghai, China). The cells were cultured in Dulbecco’s modified Eagle medium (DMEM; NY, USA), which were all supplemented with 10% fetal bovine serum (FBS; NY, USA) at 37 °C with 5% CO2.
(§3) The cytotoxic activity was evaluated using the MTT assay. Briefly, cells were seeded in 96-well plates at a density of 5 × 10^3 cells/well in 100 μL of DMEM medium at 37 °C for 24 h. Stock solutions of test compounds were prepared in DMSO at concentration of 50 mM, and twofold serial dilution with a culture medium was performed to obtain appropriate concentrations right before the assay. After that, the cells were incubated with synthetic derivatives or cisplatin as a positive control at the various concentrations (0.78125-50 μM) for 48 h. Then, 20 μL of 3-(4,5-Dimethylthiazol-2-yl)-2,5-diphenyltetrazolium bromide (MTT, Aladdin, Shanghai, China) solution (5 mg/mL in PBS) was added, and then the cells were incubated at 37 °C for an additional 4 h. The supernatant was removed, and 150 μL of dimethyl sulfoxide was added to dissolve the MTT formazan. The optical density (OD) was measured on a microplate reader (SpectraMax Plus 384, Molecular Devices, Sunnyvale, CA, USA) at a wavelength of 570 nm. The cytotoxic activity was expressed as the IC50 values. The above tests were repeated three times in parallel. Vehicle DMSO (0.1%) was used as a negative control.
A general note: Tetrazolium dyes change colour on reduction, which living cells bring about.

The subject of data set [2] is A375 (human melanoma cancer cell line). As to the kind of experiment: MTT assay, cytotoxicity against A375. In kind it is cell-based. The following applies: read-out: IC50 A375. The protocol:
as §1, §2, §3

Data set [3] has as its system Huh-7 (human hepatoma cancer cell line). As to the kind of experiment: MTT assay, cytotoxicity against Huh-7. In kind it is cell-based. The following applies: read-out: IC50 Huh-7. The method, then: as §1, §2, §3
Data set [4] concerns human normal hepatic L-02 cells. Briefly: MTT assay, cytotoxicity on normal L-02 cells. In kind it is cell-based. The following applies: for IC50: Homo sapiens, read-out: IC50 L-02; for SI (selectivity index): IC50 (L-02)/IC50 (Huh-7). The protocol: The selectivity index is crucial for drug development, because it could mediate side effects, including tissues toxicity. Therefore, according to cytotoxic activity results, compounds 6 and 10 with potent cytotoxicity in Huh-7 cells were selected to investigate the selectivity between normal and cancer cells. These two compounds were tested on human normal hepatic L-02 cells with HO as control.
as §2, §3

For data set [5], the system named is HCT-116 (human colon cancer cell line). Briefly: MTT assay, cytotoxicity against HCT-116. The following applies: read-out: IC50 HCT-116. The class given is cell-based. The protocol:
as §1, §2, §3

Details of data set [6]: method as in PMID 18523925, PMID 29182349, PMID 31184894. The following applies: compared with HO; cited from earlier work.
For data set [7], the system named is HCT-116, A375, A549, and Huh-7 cells. Briefly: MTT assay, statements for the whole panel of tested cancer cells. The class given is cell-based, human. The protocol:
as §1, §2, §3

The mark [8] stands for this setting: L02, MTT, 48 h, normal hepatic L-02 cells.
Setting [9] is: Homo sapiens, A549, 48 h, MTT, 48 h, A549 cells.
Where [10] appears, read: Homo sapiens, A-375, 48 h, MTT, 48 h, A375 cells.
[11] abbreviates: Homo sapiens, Huh-7, 48 h, MTT, 48 h, Huh-7 cells.
[12] abbreviates: Homo sapiens, HCT-116, 48 h, MTT, 48 h, HCT-116 cells.

Where two headings read alike, the source gives them in different places. Bounds are passed on as bounds.

In the case of `Cc1cc(=O)cc2c3c1C1OC4C5OC(=O)C(CC2O)(C4C)C3C15` [Compound 10, (3R,4aR,9S,10aS,11S)-9-hydroxy-5,11-dimethyl-2a,3,4a,9,10,10a1-hexahydro-1H-2,4-dioxa-3,10a-methanocyclohepta[bc]cyclopenta[jk]acenaphthylene-1,7(2a1H)-dione], the IC50 in data set [1] (MTT, 48 h, A549 cells) was determined as 8.25 ± 0.2 µM; in data set [2] (MTT, 48 h, A375 cells), 5.79 ± 1.26 µM; in data set [3] (MTT, 48 h, Huh-7 cells), 6.34 ± 0.32 µM; in data set [4] (setting [8]) it was 22.3 ± 1.11 µM; in data set [5] (MTT, 48 h, HCT-116 cells), 2.29 ± 0.27 µM. The “SI (selectivity index)” value in data set [4] was 3.5.

In the case of `Cc1cc(=O)cc2c3c1[C@@H]1O[C@H]4[C@@H]5OC(=O)[C@](CC2)([C@@H]4C)[C@H]3[C@@H]51` [HO (1), Harringtonolide], the IC50 in data set [1] (Homo sapiens, A549, 48 h) was found to be 1.67 ± 0.23 µM; in data set [2] (Homo sapiens, A-375, 48 h), 1.34 ± 0.23 µM; in data set [3] (Homo sapiens, Huh-7, 48 h), 1.25 ± 0.08 µM; in data set [4] (L02, 48 h), 3.46 ± 0.36 µM; in data set [5] (Homo sapiens, HCT-116, 48 h) it was 0.61 ± 0.03 µM. Also, in data set [4], the “SI (selectivity index)” value is 2.8.

Consider `CC1=C[C@@H](O)[C@H](O)[C@@]2(O)CCC34C(=O)OC5C6C3C2=C1[C@@H]6O[C@@H]5C4C` (stereo partly drawn) [fortalpinoid K], for which the “cytotoxic activities (result in words)” value in data set [6] was “losing of cytotoxic activities”.

Turning to `Cc1cc(=O)cc2c3c1C1OC4C5OC(=O)C(C=C2)(C4C)C3C15` [Compound 6, (3R,4aR,10aS,11S)-5,11-dimethyl-2a,3,4a,10a1-tetrahydro-1H-2,4-dioxa-3,10a methanocyclohepta[bc]cyclopenta[jk]acenaphthylene-1,7(2a1H)-dione], the IC50 in data set [1] (setting [9]) is 5.47 ± 0.13 µM; in data set [2] (setting [10]), 4.85 ± 0.42 µM; in data set [3] (setting [11]), 1.19 ± 0.08 µM; in data set [4] (setting [8]), 67.2 ± 0.43 µM; in data set [5] (setting [12]), 0.86 ± 0.05 µM. In addition, the “SI (selectivity index)” value in data set [4] was found to be 56.5. Besides, in data set [4] (SI between Huh-7 and L-02, compared with HO), the “selectivity index relative to HO” value amounted to 20 times.

For the molecule `Cc1cc(=O)cc2c3c1C1OC4C5OC(=O)C(CC2OC(=O)c2ccccc2)(C4C)C3C15` [Compound 11d, (3R,4aR,9S,10aS,11S)-5,11-dimethyl-1,7-dioxo-2a,2a1,3,4a,7,9,10,10a1-octahydro-1H-2,4-dioxa-3,10a-methanocyclohepta[bc]cyclopenta[jk]acenaphthylen-9-yl benzoate], the IC50 is > 50 µM in data set [1] (setting [9]); > 50 µM in data set [2] (setting [10]); > 50 µM in data set [7] (Homo sapiens, all tested cancer cells (HCT-116, A375, A549, Huh-7), read-out: IC50 against tested cells); > 50 µM in data set [3] (setting [11]); > 50 µM in data set [5] (setting [12]).

As for `Cc1cc(=O)c(N)c2c3c1C1OC4C5OC(=O)C(CC2)(C4C)C3C15` [Compound 2, (3R,4aR,10aS,11S)-8-amino-5,11-dimethyl-2a,3,4a,9,10,10a1-hexahydro-1H-2,4-dioxa-3,10a-methanocyclohepta[bc]cyclopenta[jk]acenaphthylene-1,7(2a1H)-dione], the IC50 in data set [1] (setting [9]), in data set [2] (setting [10]), in data set [3] (setting [11]) and in data set [5] (setting [12]) was > 50 µM in each case. Moreover, the “cytotoxic activities against four tested cancer cells (result in words)” value in data set [7] (HCT-116, A375, A549, Huh-7, tested up to 50 μM) was “losing of cytotoxic activities”.
